In patent US11136292B2, “Plant growth regulator compounds” (SYNGENTA PARTICIPATIONS AG, priority 2016, dated 2021) one finds change in vivo data, which are given here for seven molecules.

The experiment relates to NK Falkone 2015 corn seeds. Nature of the experiment: Corn seed germination under cold stress (Example B1). The experiment is classed as in vivo. The conditions noted are these: Zea mays, cold stress 15° C.; for change in vivo at 2 µM: Rate 2 μM; for change in vivo at 10 µM: Rate 10 μM; for change in vivo at 50 µM: Rate 50 μM; for change in vivo at 250 µM: Rate 250 μM. How it is done:
The effect of compounds of formula (I) on the germination of NK Falkone 2015 corn seeds under cold stress was evaluated as follows. NK Falkone corn seeds were sorted by size using 2 sieves, one excluding very big seeds and the other with round holes of 8 to 9 mm diameter. The seeds retained by the latter sieve were used for the germination test. The corn seeds were placed in 24 well plates (each plate was considered as one experimental unit or replicate). Germination was initiated by the addition of 250 μl of distilled water containing 0.5% DMSO per well as a means for compound solubilization. 8 replicates (ie, 8 plates) were used for each treatment characterization. Plates were sealed using seal foil (Polyolefin Art. Nr. 900320) from HJ-BIOANALYTIK. All plates were placed horizontally on trolleys in a climatic chamber at 15° C. The experiment was laid out in a completely randomized design in climatic chamber with 75% Relative Humidity. Foils were pierced, one hole per well using a syringe after 72 hours for experiments performed at 15° C.
Germination was followed over time by taking photographs at different time points. Image analysis was performed automatically with a macro which was developed using the Image J software. A dynamic analysis of germination was carried out by fitting a logistic curve. Three parameters were calculated from the logistic curve: the T50; the slope and the plateau. All three parameters have a high agronomical relevance and are key requirements to ensure a good early crop-establishment. All the values are expressed as percentages compared to an untreated control. All the three parameters are calculated considering 8 replicates and the kinetic parameters are separately determined for each germination curve. Data in bold indicate germination enhancing statistically significant differences between treated seeds and untreated control (p<0.05). The T50 corresponds to the time needed for half of the seed population to germinate. Higher negative %-values indicate faster germination. The slope indicates how synchronous the germination of the seed population is. Positive values indicate steeper curve; the steeper the curve, the better and more uniform the germination is.

Where [1] appears, read: slope of logistic germination curve, read-out: Slope (% vs control).
Where [2] appears, read: time for half of seeds to germinate, control T50 = 110 hours, read-out: T50 (% vs control).

Like-named read-outs stand apart in the source and are kept apart here.

With `CCOC(=O)/C(=C/OC1C=C(C)C(=O)O1)C1CCOc2ccccc21` (centres unmarked) [Compound I-90], under setting [1], the change in vivo at 2 µM is -10%, the change in vivo at 10 µM was -0.32%, the change in vivo at 50 µM came to 4.6% and the change in vivo at 250 µM came out at 83.6%. Under setting [2], the change in vivo at 2 µM stood at 3.2%, the change in vivo at 10 µM stood at 2.8%, the change in vivo at 50 µM is 0.45% and the change in vivo at 250 µM was -6.7%.
As to `CCOC(=O)/C(=C/OC1OC(=O)C(C)=C1C)C1CCOc2ccccc21` (centres unmarked) [Compound I-91], under setting [1], the change in vivo at 2 µM is -15.3%, the change in vivo at 10 µM was -5.4%, the change in vivo at 50 µM was determined as 18.8% and the change in vivo at 250 µM was 67.4%. Also, under setting [2], the change in vivo at 2 µM is 2.5%, the change in vivo at 10 µM came out at 2.7%, the change in vivo at 50 µM was -1.5% and the change in vivo at 250 µM is -6.1%.
For the molecule `CCOC(=O)/C(=C/OC1OC(=O)C(C)=C1C)C1COc2ccccc21` (centres unmarked) [Compound I-95], under setting [1], the change in vivo at 2 µM is -2%, the change in vivo at 10 µM was -13.9%, the change in vivo at 50 µM came to 2.7% and the change in vivo at 250 µM is 81.5%. Also, under setting [2], the change in vivo at 2 µM turned out to be 1.6%, the change in vivo at 10 µM is 1.6%, the change in vivo at 50 µM came out at 0.6% and the change in vivo at 250 µM was -6.7%.
Consider `CC1=CC(O/C=C2/C(=O)OC3c4ccccc4CC23)OC1=O` (centres unmarked) [Prior art 1], for which, under setting [1], the change in vivo at 2 µM was -0.7%, the change in vivo at 10 µM was -11.3%, the change in vivo at 50 µM was 6.2% and the change in vivo at 250 µM worked out at 36.3%. Also, under setting [2], the change in vivo at 2 µM was -1.5%, the change in vivo at 10 µM is -0.1%, the change in vivo at 50 µM is -1.85% and the change in vivo at 250 µM is -3.4%.
Regarding `CC1=C(C)C(O/C=C2/C(=O)OC3c4ccccc4CC23)OC1=O` (centres unmarked) [Prior art 2], under setting [1], the change in vivo at 2 µM was -1.3%, the change in vivo at 10 µM was found to be 1.4%, the change in vivo at 50 µM was found to be 9.6% and the change in vivo at 250 µM came out at 15.8%. Besides, under setting [2], the change in vivo at 2 µM is -1.5%, the change in vivo at 10 µM worked out at 1.7%, the change in vivo at 50 µM is -1.6% and the change in vivo at 250 µM was -2.1%.
Take `CC1=CC(O/C=C2/C(=O)OC3Cc4ccccc4C23)OC1=O` (centres unmarked) [Prior art 3]: under setting [1], the change in vivo at 2 µM is -0.7%, the change in vivo at 10 µM amounted to 2.2%, the change in vivo at 50 µM came to 4% and the change in vivo at 250 µM stood at 14.1%. Under setting [2], the change in vivo at 2 µM was 1.6%, the change in vivo at 10 µM came out at 0%, the change in vivo at 50 µM was -0.8% and the change in vivo at 250 µM was -0.5%.
For the molecule `COC(=O)/C(=C/OC1C=C(C)C(=O)O1)c1ccccc1` (centres unmarked) [Prior art 4], under setting [1], the change in vivo at 2 µM is -7.7%, the change in vivo at 10 µM was 14.9%, the change in vivo at 50 µM is -11.4% and the change in vivo at 250 µM was found to be 4.1%. Under setting [2], the change in vivo at 2 µM was 1.2%, the change in vivo at 10 µM was -3.4%, the change in vivo at 50 µM was 2.4% and the change in vivo at 250 µM came to 0.1%.
